Reference: ChEMBL document CHEMBL4619786, “Discovery of Novel Resorcinol Dibenzyl Ethers Targeting the Programmed Cell Death-1/Programmed Cell Death-Ligand 1 Interaction as Potential Anticancer Agents” (J Med Chem, 2020)

Experiments:
Mus musculus [1] = assay: Effect on activated cytotoxic T cell population in mouse B16/F10 cells implanted […] mouse assessed as CD3-positive/CD8-positive cell population in spleen at 50 mg/kg, ig administered once daily via gavage for 15 days measured 24 hrs post-last dose by immunostaining based flow cytometry (reference value: 14.2 %); format: organism-based; settings: in vivo, po
Mus musculus [2] = assay: Effect on activated cytotoxic T cell population in mouse B16/F10 cells implanted […] mouse assessed as CD8-positive cell population in spleen at 100 mg/kg, ig administered once daily via gavage for 15 days measured 24 hrs post-last dose by immunostaining based flow cytometry (reference value: 0.383 %); format: organism-based; settings: in vivo, po
Mus musculus [3] = assay: Immunostimulatory activity in mouse B16/F10 cells implanted BALB/c mouse assessed as increase in activation of tumor-microenvironment mediated helper T cells in tumor by measuring CD3-positive/CD4-positive cell population at 25 mg/kg, ig administered once daily via gavage for 15 days measured 24 hrs post-last dose by immunostaining based flow cytometry (reference value: 6.15%); format: functional
Mus musculus [4] = assay: Immunostimulatory activity in mouse B16/F10 cells implanted BALB/c mouse assessed as increase in activation of tumor-microenvironment mediated activated cytotoxic T cells in tumor by measuring CD3-positive cell population at 25 mg/kg, ig administered once daily via gavage for 15 days measured 24 hrs post-last dose by immunostaining based flow cytometry (reference value: 20.8%); format: functional
[5] = Selectivity ratio of IC50 for inhibition of mouse biotin-labelled C-terminal Fc-fused/Avi-tagged PD1/Fc-fused PDL1 expressed in HEK293 cells protein-protein interaction to IC50 for inhibition of human PD1/PDL1 protein-protein interaction; format: cell-based
[6] = molecular target: T1, Programmed cell death protein 1/Programmed cell death 1 ligand 1 (Homo sapiens) (UniProt Q15116+Q9NZQ7); assay: (§1) Inhibition of human PD1/PDL1 protein-protein interaction in human PBMC-derived CD3-positive T cells co-cultured with human Hep3B cells expressing human PDL1/OS-8 assessed as increase in IFNgamma secretion measured after 72 hrs by ELISA
[7] = molecular target: Programmed cell death protein 1/Programmed cell death 1 ligand 1 (Homo sapiens, UniProt Q9NZQ7); assay: as §1
Programmed cell death protein 1/Programmed cell death 1 ligand 1 (Homo sapiens, UniProt Q9NZQ7), sequence (Q15116 whole entry): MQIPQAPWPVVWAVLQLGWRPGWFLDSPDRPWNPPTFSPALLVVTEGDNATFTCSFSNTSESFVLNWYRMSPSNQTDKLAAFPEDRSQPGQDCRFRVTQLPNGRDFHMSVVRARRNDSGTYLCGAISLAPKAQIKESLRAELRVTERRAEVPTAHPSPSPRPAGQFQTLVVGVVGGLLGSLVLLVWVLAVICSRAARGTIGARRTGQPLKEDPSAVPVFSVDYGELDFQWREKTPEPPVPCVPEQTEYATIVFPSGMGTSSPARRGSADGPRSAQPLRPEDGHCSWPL
Programmed cell death protein 1/Programmed cell death 1 ligand 1 (Homo sapiens, UniProt Q9NZQ7), sequence (Q9NZQ7 whole entry): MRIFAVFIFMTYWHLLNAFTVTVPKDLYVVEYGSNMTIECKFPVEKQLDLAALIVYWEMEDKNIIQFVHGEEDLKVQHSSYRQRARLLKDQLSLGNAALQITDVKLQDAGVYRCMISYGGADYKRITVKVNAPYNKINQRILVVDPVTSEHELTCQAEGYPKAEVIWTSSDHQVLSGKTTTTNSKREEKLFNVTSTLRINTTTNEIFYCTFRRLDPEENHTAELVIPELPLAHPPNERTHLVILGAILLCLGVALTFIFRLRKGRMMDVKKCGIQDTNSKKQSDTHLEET

B16-F10 = assay: Antitumor activity against mouse B16/F10 cells implanted in BALB/c mouse assessed as tumor weight at 25 mg/kg, ig administered once daily via gavage for 15 days measured 24 hrs post-last dose (reference value: 0.84 +/- 0.32 g); format: functional
Mus musculus [8] = assay: Effect on activated cytotoxic T cell population in mouse B16/F10 cells implanted […] mouse assessed as CD8-positive cell population in spleen at 50 mg/kg, ig administered once daily via gavage for 15 days measured 24 hrs post-last dose by immunostaining based flow cytometry (reference value: 0.383 %); format: organism-based; settings: in vivo, po
[9] = molecular target: T1, Programmed cell death protein 1/Programmed cell death 1 ligand 1 (Homo sapiens); assay: Ratio of EC50 for inhibition of human PD1/PDL1 protein-protein interaction in human PBMC-derived CD3-positive T cells co-cultured with human Hep3B cells expressing human PDL1/OS-8 assessed as increase in IFNgamma secretion to IC50 for inhibition of human PD1/PDL1 protein-protein interaction
[10] = Toxicity in mouse B16/F10 cells implanted […] mouse assessed as change in thymus weight at 25 to 100 mg/kg, ig administered once daily via gavage for 15 days measured 24 hrs post-last dose; format: organism-based; settings: in vivo, po
Mus musculus [11] = assay: Immunostimulatory activity in mouse B16/F10 cells implanted BALB/c mouse assessed as increase in activation of tumor-microenvironment mediated activated cytotoxic T cells in tumor by measuring CD3-positive cell population at 50 mg/kg, ig administered once daily via gavage for 15 days measured 24 hrs post-last dose by immunostaining based flow cytometry (reference value: 20.8%); format: functional
[12] = Volume of distribution at steady state in Sprague-Dawley rat at 10 mg/kg, po by LC-MS/MS analysis; format: ADME, organism-based; settings: in vivo
[13] = molecular target: Programmed cell death protein 1/Programmed cell death 1 ligand 1 (Mus musculus, UniProt Q9EP73); assay: Inhibition of mouse biotin-labelled C-terminal Fc-fused/Avi-tagged PD1/Fc-fused PDL1 expressed in HEK293 cells protein-protein interaction measured after 2 hrs by ELISA; format: cell-based
Programmed cell death protein 1/Programmed cell death 1 ligand 1 (Mus musculus, UniProt Q9EP73), sequence (Q9EP73 whole entry, the tested form may be a part): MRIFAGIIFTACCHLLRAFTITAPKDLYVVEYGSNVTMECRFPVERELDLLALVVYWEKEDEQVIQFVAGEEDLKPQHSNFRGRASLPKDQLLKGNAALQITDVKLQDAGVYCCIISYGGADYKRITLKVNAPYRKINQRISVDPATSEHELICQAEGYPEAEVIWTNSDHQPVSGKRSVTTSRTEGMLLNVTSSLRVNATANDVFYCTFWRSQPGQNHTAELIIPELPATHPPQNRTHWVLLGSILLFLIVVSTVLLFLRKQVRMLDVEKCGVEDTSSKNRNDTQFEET
Programmed cell death protein 1/Programmed cell death 1 ligand 1 (Mus musculus, UniProt Q9EP73), sequence (Q02242 whole entry, further chain, the tested form may be a part): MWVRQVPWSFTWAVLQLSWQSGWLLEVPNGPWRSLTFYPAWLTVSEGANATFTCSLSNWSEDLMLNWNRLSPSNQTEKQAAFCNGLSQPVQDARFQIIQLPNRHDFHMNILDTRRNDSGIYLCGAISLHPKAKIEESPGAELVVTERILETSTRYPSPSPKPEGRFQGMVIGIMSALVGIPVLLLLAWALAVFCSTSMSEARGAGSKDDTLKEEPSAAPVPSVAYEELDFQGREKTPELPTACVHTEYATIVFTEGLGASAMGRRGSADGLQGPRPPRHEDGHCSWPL

[14] = Oral bioavailability in Sprague-Dawley rat at 10 mg/kg by LC-MS/MS analysis; format: ADME, organism-based; settings: in vivo
Mus musculus [15] = assay: Immunostimulatory activity in mouse B16/F10 cells implanted […] mouse assessed as increase in activation of tumor-microenvironment mediated activated cytotoxic T cells in tumor by measuring CD3-positive/CD8-positive cell population at 100 mg/kg, ig administered once daily via gavage for 15 days measured 24 hrs post-last dose by immunostaining based flow cytometry (reference value: 4.18%); format: functional
Mus musculus [16] = assay: Immunostimulatory activity in mouse B16/F10 cells implanted BALB/c mouse assessed as increase in activation of tumor-microenvironment mediated activated cytotoxic T cells in tumor by measuring CD3-positive cell population at 100 mg/kg, ig administered once daily via gavage for 15 days measured 24 hrs post-last dose by immunostaining based flow cytometry (reference value: 20.8%); format: functional
[17] = Tmax in Sprague-Dawley rat at 10 mg/kg, po by LC-MS/MS analysis; format: ADME, organism-based; settings: in vivo
Mus musculus [18] = assay: Immunostimulatory activity in mouse B16/F10 cells implanted BALB/c mouse assessed as increase in activation of tumor-microenvironment mediated helper T cells in tumor by measuring melanoma cell population at 100 mg/kg, ig administered once daily via gavage for 15 days measured 24 hrs post-last dose by immunostaining based flow cytometry (reference value: 70%); format: functional
Mus musculus [19] = assay: Effect on spleen helper T cell population in mouse B16/F10 cells implanted […] mouse assessed as CD4-positive cell population at 50 mg/kg, ig administered once daily via gavage for 15 days measured 24 hrs post-last dose by immunostaining based flow cytometry (reference value: 1.47 %); format: ADME, organism-based; settings: in vivo, po
[20] = AUC (0 to t) in Sprague-Dawley rat at 10 mg/kg, po by LC-MS/MS analysis; format: ADME, organism-based; settings: in vivo
[21] = Toxicity in mouse B16/F10 cells implanted […] mouse assessed as histological changes in liver at 25 to 100 mg/kg, ig administered once daily via gavage for 15 days measured 24 hrs post-last dose by H and E staining based microscopic analysis; format: organism-based; settings: in vivo, po
Mus musculus [22] = assay: Effect on spleen helper T cell population in mouse B16/F10 cells implanted […] mouse assessed as spleen cell population at 100 mg/kg, ig administered once daily via gavage for 15 days measured 24 hrs post-last dose by immunostaining based flow cytometry (reference value: 56.1 %); format: ADME, organism-based; settings: in vivo, po
[23] = Toxicity in mouse B16/F10 cells implanted […] mouse assessed as increase in body weight at 25 to 100 mg/kg, ig administered once daily via gavage for 15 days measured during compound dosing; format: organism-based; settings: in vivo, po, 360 h
Mus musculus [24] = assay: Effect on activated cytotoxic T cell population in mouse B16/F10 cells implanted […] mouse assessed as CD8-positive cell population in spleen at 25 mg/kg, ig administered once daily via gavage for 15 days measured 24 hrs post-last dose by immunostaining based flow cytometry (reference value: 0.383 %); format: organism-based; settings: in vivo, po

SMILES: Cc1c(COc2cc(OCc3cccc(C#N)c3)c(CNC(C)(C)C(=O)O)cc2Cl)cccc1-c1ccccc1
- Activity (Mus musculus [1]): 15.5%
- Activity (Mus musculus [2]): 0.44%
- Activity (Mus musculus [3]): 15.4%
- Activity (Mus musculus [4]): 18%
- Ratio IC50 [5]: > 80
- inhibition [6]: Dose-dependent effect
- EC50 [7]: 3 µM
- Activity (B16-F10): 0.41 g
- Activity (Mus musculus [8]): 0.374%
- Ratio [9]: 240
- Activity [10]: Non-Toxic
- Activity (Mus musculus [11]): 14.5%
- Vdss [12]: 290.3 L/kg
- IC50 [13]: > 1 µM
- bioavailability [14]: 5%
- Activity (Mus musculus [15]): 23%
- Activity (Mus musculus [16]): 18.7%
- Tmax [17]: 36 min
- Activity (Mus musculus [18]): 57%
- Activity (Mus musculus [19]): 1.18%
- AUC(0-t) [20]: 410 ng·h/mL
- Activity [21]: Non-Toxic
- Activity (Mus musculus [22]): 60.4%
- Activity [23]: Toxic
- Activity (Mus musculus [24]): 0.452%
